Where two headings read alike, the source gives them in different places.
Assay: Plasma pharmacokinetics, Cycle 1 (LC-MS, non-compartmental)
Format: in vivo, human
Settings: for half-life / Tmax / concentration at 7 days / AUC(0-t) / Cmax: human, plasma, 3 mg; for concentration at 7 days: after 7 days of dosing
Experimental: Blood samples were obtained on Days 1, 2, and 8 of Cycle 1. […] plasma concentrations were measured using liquid chromatography‐mass spectroscopy. Plasma concentration‐time data were analyzed by standard methods using WinNonlin. Pearson's correlation coefficient (r) was used to assess correlation of group variables. Statistical significance was defined as p < 0.05. Additional details are contained in the Supplementary Method: Data S1.
Blood samples (6 ml, sodium heparin) were obtained during the first cycle of treatment before drug administration on Days 1, 2 and 8; and 0.5, 1, 2, 3, 4, and 8 hours after the oral dose was administered on Day 1 and Day 8. After collection, tubes were immediately cooled in an ice water bath and plasma was isolated by centrifugation (10 minutes; 1,100 - 1,300 x g; 4°C) in a refrigerated centrifuge. Plasma samples were frozen immediately and stored at approximately -70°C or lower until analysis.
Plasma concentration-time data were analyzed by standard non-compartmental methods using WinNonlin (Pharsight, Mountain View, CA). Standard descriptive statistics were used to summarize plasma sapanisertib PK parameters. […] Oral steady-state clearance (ClSS/F) was calculated using the equation, ClSS = Dose/AUCτ.

In the case of `CC(C)n1nc(-c2ccc3oc(N)nc3c2)c2c(N)ncnc21` [sapanisertib], the “C max, Mean ± SD” value (Cycle 1 Day 1, 3 mg daily oral) is reported as 26.1 ± 8.0 ng/mL, the “CL, Mean ± SD” value (Cycle 1 Day 1, 3 mg daily oral) is reported as 22.0 ± 14.2 L/h and the “CL, Median (range)” value (Cycle 1 Day 1, 3 mg daily oral) is reported as 22.0 (5.8–49.2) L/hr. The “CL, Mean ± SD” value (Cycle 1 Day 8, 3 mg daily oral) was 23.3 ± 23.8 L/h, the “CL, Median (range)” value (Cycle 1 Day 8, 3 mg daily oral) was 16.4 (3.2–82.6) L/hr and the peak plasma concentration (Day 1) was 84 nM. The “time to peak concentration after drug administration” value (Day 1) was 2 h, the “time to peak concentration after drug administration” value (Day 8) was 1.2 h and the “time of peak concentration (mean)” value (Day 8 dose, discussion) was 1.5 h. For the same compound, the mean accumulation ratio (Day 8 versus Day 1 AUCall) was 1.4, the “half‐life (terminal serum)” value (discussion) was 8 h and the half-life (oral, Day 1, read-out: mean elimination half‐life (converted)) was 8.2 ± 4.9 h. The Tmax (oral, Day 1, read-out: time to peak concentration, range) was 0.5 to 4.1 h, the half-life (oral, Day 8, read-out: mean half‐life (converted)) was 24.3 ± 42.5 h and the Tmax (oral, Day 8, read-out: time to peak concentration, range) was 0.5 to 2.9 h. The concentration at 7 days (oral, read-out: median trough concentration) was 1.9 ng/mL, the concentration at 7 days (oral, read-out: trough concentration, range) was 0 to 41.6 ng/mL and the AUC(0-t) (po, Cycle 1 Day 1, 3 mg daily oral, read-out: AUC0–24 h, Mean ± SD) was 213 ± 143 ng·h/mL. It also gave an AUC(0-t) (po, Cycle 1 Day 1, 3 mg daily oral, read-out: AUC0–24 h, Median (range)) of 213 ng·h/mL, a Cmax (po, Cycle 1 Day 1, 3 mg daily oral, read-out: C max, Mean ± SD) of 26 ng/mL and a Cmax (po, Cycle 1 Day 1, 3 mg daily oral, read-out: C max, Median (range)) of 26.5 ng/mL. For the same compound, the half-life (po, Cycle 1 Day 1, 3 mg daily oral, read-out: Half‐life, Mean ± SD (converted)) was 8.2 ± 4.9 h, the half-life (po, Cycle 1 Day 1, 3 mg daily oral, read-out: Half‐life, Median (range) (converted)) was 7.1 h and the Tmax (po, Cycle 1 Day 1, 3 mg daily oral, read-out: T max, Mean ± SD) was 1.7 ± 1.1 h. For the same compound, the Tmax (po, Cycle 1 Day 1, 3 mg daily oral, read-out: T max, Median (range)) was 2 h, the AUC(0-t) (po, Cycle 1 Day 8, 3 mg daily oral, read-out: AUC0–24 h, Mean ± SD) was 361 ± 337 ng·h/mL and the AUC(0-t) (po, Cycle 1 Day 8, 3 mg daily oral, read-out: AUC0–24 h, Median (range)) was 182 ng·h/mL. It also gave a Cmax (po, Cycle 1 Day 8, 3 mg daily oral, read-out: C max, Mean ± SD) of 34.4 ± 20.9 ng/mL, a Cmax (po, Cycle 1 Day 8, 3 mg daily oral, read-out: C max, Median (range)) of 29.4 ng/mL and a half-life (po, Cycle 1 Day 8, 3 mg daily oral, read-out: Half‐life, Mean ± SD (converted)) of 24.3 ± 42.5 h. For the same compound, the half-life (po, Cycle 1 Day 8, 3 mg daily oral, read-out: Half‐life, Median (range) (converted)) was 11.3 h, the Tmax (po, Cycle 1 Day 8, 3 mg daily oral, read-out: T max, Mean ± SD) was 1.5 ± 0.7 h and the Tmax (po, Cycle 1 Day 8, 3 mg daily oral, read-out: T max, Median (range)) was 1.2 h.
